Common to all, as to assay type: cell-based
The target in experiment [1] is T1, Ba/F3 FLT3 (ITD) (Homo sapiens, UniProt P36888, cells depend on it, form not given).
T1 sequence (P36888 1-993): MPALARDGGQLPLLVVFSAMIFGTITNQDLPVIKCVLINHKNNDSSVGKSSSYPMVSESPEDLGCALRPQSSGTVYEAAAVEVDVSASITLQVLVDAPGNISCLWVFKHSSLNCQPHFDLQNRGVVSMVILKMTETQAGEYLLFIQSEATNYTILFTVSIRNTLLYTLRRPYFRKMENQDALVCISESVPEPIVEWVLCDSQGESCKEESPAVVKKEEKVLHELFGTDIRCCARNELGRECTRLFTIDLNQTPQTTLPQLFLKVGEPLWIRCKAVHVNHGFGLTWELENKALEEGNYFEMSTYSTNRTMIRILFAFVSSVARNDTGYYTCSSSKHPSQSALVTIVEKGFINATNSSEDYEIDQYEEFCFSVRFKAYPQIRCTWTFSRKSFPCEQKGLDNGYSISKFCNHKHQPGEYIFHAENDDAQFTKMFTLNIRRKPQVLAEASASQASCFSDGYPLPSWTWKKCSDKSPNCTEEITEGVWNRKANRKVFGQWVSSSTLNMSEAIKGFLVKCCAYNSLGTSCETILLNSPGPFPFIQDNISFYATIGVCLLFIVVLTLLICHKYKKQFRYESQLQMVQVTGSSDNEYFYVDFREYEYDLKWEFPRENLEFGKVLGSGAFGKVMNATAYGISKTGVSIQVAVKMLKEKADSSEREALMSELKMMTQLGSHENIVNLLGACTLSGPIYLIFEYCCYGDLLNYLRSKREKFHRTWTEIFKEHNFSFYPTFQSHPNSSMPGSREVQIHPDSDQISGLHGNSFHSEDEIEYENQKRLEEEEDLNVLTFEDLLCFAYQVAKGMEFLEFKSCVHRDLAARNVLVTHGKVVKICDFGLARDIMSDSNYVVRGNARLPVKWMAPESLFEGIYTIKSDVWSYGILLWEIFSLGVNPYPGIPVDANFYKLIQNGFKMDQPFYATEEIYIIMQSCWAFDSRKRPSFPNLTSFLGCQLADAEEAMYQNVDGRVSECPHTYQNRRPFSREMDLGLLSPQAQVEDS
Description: Ba/F3 cell growth inhibition (CellTiter-Glo, 72 hours). Conditions: read-out: Ba/F3 GI50s (μM) FLT3 (ITD). On the procedure:
(§1) Seeding 3000 cells per well in a 96-well plate. After cell stabilization, treat the cells with compounds diluted in […] at a ⅓ serial dilution and culture for 72 hours. Following treatment with CellTiter-Glo, luminescence is produced only in the presence of ATP, as luciferase degrades luciferin. Luminescence values were measured using Envision (PerkinElmer). Based on the measured luminescence values, the concentration of compounds causing cell death was calculated to determine the GI50 value.
(§2) The activity values were categorized into three levels. • A: IC50<1 μM • B: 1 μM≤IC50<10 μM, • C: IC50≥10 μM

Experiment [2] relates to Ba/F3 parental. Described as above. Conditions: Mus musculus, BaF3, Ba/F3 parental cells, read-out: Ba/F3 GI50s (μM) parental. On the procedure: as §1, §2
In experiment [3] the test system is H358. The experiment can be described thus: Cancer cell growth inhibition (CellTiter-Glo, 72 hours). Conditions: Homo sapiens, NCI-H358, H358 cells, read-out: GI50s (μM) H358. On the procedure:
(§3) Seeding 3000 cells per well in a 96-well plate. After cell stabilization, treat the cells with compounds diluted in 0.5% DMSO at a ⅓ serial dilution and culture for 72 hours. Following treatment with CellTiter-Glo, luminescence is produced only in the presence of ATP, as luciferase degrades luciferin. Luminescence values were measured using Envision (PerkinElmer). Based on the measured luminescence values, the concentration of compounds causing cell death was calculated to determine the GI50 value.
(§4) The activity values were categorized into three levels • A: IC50<1 μM • B: 1 μM≤IC50<10 μM, • C: IC50≥10 μM

Experiment [4] deals with H23. Described as above. Conditions: Homo sapiens, NCI-H23, H23 cells, read-out: GI50s (μM) H23. On the procedure:
as §3, §4

Experiment [5] concerns H1975. Described as above. Conditions: Homo sapiens, NCI-H1975, H1975 cells, read-out: GI50s (μM) H1975. On the procedure: as §3, §4
Experiment [6] relates to HCT116. Described as above. Conditions: Homo sapiens, HCT-116, HCT116 cells, read-out: GI50s (μM) HCT116. On the procedure: as §3, §4
The test system of experiment [7] is MDA-MB-231. The description is as above. Conditions: Homo sapiens, MDA-MB-231 cells, read-out: GI50s (μM) MDA-MB-231. The protocol: as §3, §4
In experiment [8] the test system is colo205. The experiment is described as above. Conditions: Homo sapiens, COLO 205, colo205 cells, read-out: GI50s (μM) colo205. The protocol: as §3, §4

On to `CN1CCCn2cc(cn2)Nc2ncc3ccc(n3n2)-c2ccc(cc2)OCC1` [Example 2], for which, in experiment [1], the GI50 is below 1 µM. For the same molecule, the IC50 in experiment [2] is 1 to 10 µM; in experiment [3], below 1 µM; in experiment [4], below 1 µM; in experiment [5], 1 to 10 µM; in experiment [6] it was below 1 µM; in experiment [7], at least 10 µM. In addition, the IC50 in experiment [8] was 1 to 10 µM.

Regarding `CC(=O)N1CCCn2cc(cn2)Nc2ncc3ccc(n3n2)-c2ccc(cc2)OCC1` [Example 3, 1-((2^1Z,4^4E)-4^1H-11-oxa-3,8-diaza-2(7,2)-pyrrolo[2,1-f1][1,2,4]triazina-4(4,1)-pyrazola-1(1,4)-benzenacycloundecaphane-8-yl)ethan-1-one], the GI50 in experiment [1] was below 1 µM. For the same molecule, the IC50 in experiment [2] was 1 to 10 µM; in experiment [3] it was 1 to 10 µM; in experiment [4], 1 to 10 µM; in experiment [5], 1 to 10 µM; in experiment [6], below 1 µM; in experiment [7], 1 to 10 µM. For the same molecule, the IC50 in experiment [8] lay within 1 to 10 µM.

Take `COc1cccc(NC(=O)N2CCCn3cc(cn3)Nc3ncc4ccc(n4n3)-c3ccc(cc3)OCC2)c1` [Example 7, (2^1Z,4^4E)-N-(3-methoxyphenyl)-4^1H-11-oxa-3,8-diaza-2(7,2)-pyrrolo[2,1-f][1,2,4]triazina-4(4,1)-pyrazola-1(1,4)-benzenecycloundecaphane-8-carboxamide]: the GI50 in experiment [1] was below 1 µM. The IC50 is at least 10 µM in experiment [2]; 1 to 10 µM in experiment [3]; 1 to 10 µM in experiment [4]; 1 to 10 µM in experiment [5]; 1 to 10 µM in experiment [6]; at least 10 µM in experiment [7]. For the same molecule, the IC50 in experiment [8] was at least 10 µM.

With `CS(=O)(=O)N1CCCn2cc(cn2)Nc2ncc3ccc(n3n2)-c2ccc(cc2)OCC1` [Example 9, (2^1Z,4^4E)-8-(methylsulfonyl)-4^1H-11-oxa-3,8-diaza-2(7,2)-pyrrolo[2,1-f][1,2,4]triazina-4(4,1)-pyrazola-1(1,4)-benzenecycloundecaphane], the GI50 in experiment [1] is below 1 µM. Moreover, the IC50 is 1 to 10 µM in experiment [2]; below 1 µM in experiment [3]; 1 to 10 µM in experiment [4]; 1 to 10 µM in experiment [5]; below 1 µM in experiment [6]; at least 10 µM in experiment [7]. For the same molecule, the IC50 in experiment [8] was 1 to 10 µM.

With `O=C1CCCCCCn2cc(cn2)-c2ccc3cnc(nn23)Nc2ccc(cc2)OCCCN1` [Example 17, (1^4Z,2^1Z)-1′H-5-oxa-3,9-diaza-2(7,2)-pyrrolo[2,1-f][1,2,4]triazina-1(4,1)-pyrazola-4(1,4)-benzenacyclohexadecaphan-10-one], the GI50 in experiment [1] lay in the range of 1 to 10 µM. In addition, the IC50 in experiment [2] is at least 10 µM; in experiment [3], at least 10 µM; in experiment [4] it was 1 to 10 µM; in experiment [5], 1 to 10 µM; in experiment [6], 1 to 10 µM; in experiment [7] it was at least 10 µM. In addition, in experiment [8], the IC50 was at least 10 µM.

As to `O=C1CCCCCCOc2ccc(cc2F)-c2ccc3cnc(nn23)Nc2ccc(cc2)OCCCN1` [Example 20, (Z)-13-fluoro-5,17-dioxa-3,9-diaza-2(7,2)-pyrrolo[2,1-f][1,2,4]triazina-1,4(1,4)-dibenzenacycloheptadecaphan-10-one], the GI50 in experiment [1] lay in the range of 1 to 10 µM. The IC50 in experiment [2], in experiment [3], in experiment [4], in experiment [5], in experiment [6] and in experiment [7] was at least 10 µM throughout. Moreover, the IC50 in experiment [8] was at least 10 µM.

Take `O=C1CCCCCCOc2ccc(cc2)-c2ccc3cnc(nn23)Nc2ccc(cc2)N2CCN(CCCN1)CC2` [Example 23, (Z)-17-oxa-3,9-diaza-2(7,2)-pyrrolo[2,1-f][1,2,4]triazina-5(1,4)-piperazina-1,4(1,4)-dibenzenacycloheptadecaphan-10-one]: the GI50 in experiment [1] is below 1 µM. Further, the IC50 in experiment [2] is at least 10 µM; in experiment [3] it was 1 to 10 µM; in experiment [4] it was below 1 µM; in experiment [5], 1 to 10 µM; in experiment [6] it was 1 to 10 µM; in experiment [7], at least 10 µM. Moreover, in experiment [8], the IC50 lay within 1 to 10 µM.

Take `O=C1CCCCCCOc2ccc(cc2)-c2ccc3cnc(nn23)Nc2ccc(cc2)N2CCN1CC2` [Example 24, (Z)-13-oxa-3-aza-2(7,2)-pyrrolo[2,1-f][1,2,4]triazina-5(1,4)-piperazina-1,4(1,4)-dibenzenacyclotridecaphan-6-one]: in experiment [1], the GI50 is 1 to 10 µM. Further, the IC50 was 1 to 10 µM in experiment [2]; 1 to 10 µM in experiment [3]; 1 to 10 µM in experiment [4]; 1 to 10 µM in experiment [5]; 1 to 10 µM in experiment [6]; at least 10 µM in experiment [7]. Also, in experiment [8], the IC50 was 1 to 10 µM.

Consider `O=C1CCCCOc2ccc(cc2)-c2ccc3cnc(nn23)Nc2cnn(c2)C2CCN1CC2` [Example 25, (2^1Z,4^4E)-4^1H-11-oxa-3-aza-2(7,2)-pyrrolo[2,1-f][1,2,4]triazina-5(4,1)-piperidina-4(4,1)-pyrazola-1(1,4)-benzenacycloundecaphan-6-one], for which the GI50 in experiment [1] is below 1 µM. Further, the IC50 in experiment [2] was at least 10 µM; in experiment [3], at least 10 µM; in experiment [4], 1 to 10 µM; in experiment [5], at least 10 µM; in experiment [6], below 1 µM; in experiment [7], at least 10 µM. The IC50 in experiment [8] is at least 10 µM.

Regarding `O=C1CCCCOc2ccc(cc2)-c2ccc3cnc(nn23)Nc2cnn(c2)C2CCN(CCCN1)CC2` [Example 26, (2^1Z,4^4E)-4^1H-15-oxa-3,9-diaza-2(7,2)-pyrrolo[2,1-f1][1,2,4]triazina-5(4,1)-piperidina-4(4,1)-pyrazola-1(1,4)-benzenacyclopentadecaphan-10-one], the GI50 in experiment [1] is below 1 µM. For the same molecule, the IC50 in experiment [2] was at least 10 µM; in experiment [3], below 1 µM; in experiment [4], below 1 µM; in experiment [5], below 1 µM; in experiment [6], below 1 µM; in experiment [7] it was at least 10 µM. The IC50 in experiment [8] was below 1 µM.

In the case of `O=C1CCCCCCOc2ccc(cc2)-c2ccc3cnc(nn23)Nc2cnn(c2)C2CCN(CCCN1)CC2` [Example 27, (2^1Z,4^4E)-4^1H-17-oxa-3,9-diaza-2(7,2)-pyrrolo[2,1-f1][1,2,4]triazina-5(4,1)-piperidina-4(4,1)-pyrazola-1(1,4)-benzenacycloheptadecaphan-10-one], in experiment [1], the GI50 was below 1 µM. Further, the IC50 in experiment [2] was 1 to 10 µM; in experiment [3] it was 1 to 10 µM; in experiment [4] it was 1 to 10 µM; in experiment [5], at least 10 µM; in experiment [6], at least 10 µM; in experiment [7], 1 to 10 µM. In experiment [8], the IC50 is at least 10 µM.

For the origin of these results see patent US20250136614A1, “2,7-SUBSTITUTED PYRROLO[2,1-F][1,2,4]TRIAZINE COMPOUND HAVING PROTEIN KINASE INHIBITORY ACTIVITY” (Magicbullettherapeutics Co., Ltd., priority 2021, published 2025).
